From patent publication US20240391862A1, “(1,4,5-TRISUBSTITUTED-1H-PYRAZOL-3-YL)OXY-2-ALKOXY ALKYL ACIDS AND THEIR DERIVATIVES, THEIR SALTS AND THEIR USE AS HERBICIDAL AGENTS” (Bayer AKtiengesellschaft, priority 2021, published 2024)

Experiments:
[1] = system: ALOMY; experiment: Post-emergence herbicidal effect, greenhouse pot test; format: in vivo, Alopecurus myosuroides; conditions: Alopecurus myosuroides, 504 h, visual rating about 3 weeks after treatment, read-out: Post-emergence effect against ALOMY
Method in brief: (§1)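 Visual % activity scored roughly 3 weeks post-spray against untreated plants, where 100% means death and 0% equals control. Plants were treated at the one-leaf stage, 2 to 3 weeks after sowing in sandy loam, at 20 to 320 g/ha.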

[2] = system: ECHCG; experiment: Pre-emergence herbicidal effect, greenhouse pot test; format: in vivo, Echinochloa crus-galli; conditions: scored visually after about 3 weeks vs untreated controls; for pest or weed control at 320 g/ha: Echinochloa crus-galli, 504 h, read-out: Pre-emergence effect at 320 g/ha against ECHCG in %
Method in brief: (§2)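 Visual scoring at about 3 weeks after treatment, as percent versus untreated controls, 100% meaning dead plants and 0% like controls. Compounds, formulated as wettable powders or emulsion concentrates, were sprayed onto the covering soil of freshly sown pots at 20 to 320 g/ha in 600 l/ha water with 0.5% additive.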

[3] = system: VERPE; experiment: Post-emergence herbicidal effect, greenhouse pot test; format: in vivo, Veronica persica; conditions: Veronica persica, 504 h, read-out: Post-emergence effect against VERPE in %
Method in brief: as §1

[4] = system: MATIN; experiment: as above; format: in vivo, Tripleurospermum inodorum; conditions: Tripleurospermum inodorum, 504 h, read-out: Post-emergence effect against MATIN in %
Method in brief: as §1

[5] = system: POLCO; experiment: Pre-emergence herbicidal effect, greenhouse pot test; format: in vivo, Fallopia convolvulus; conditions: scored visually after about 3 weeks vs untreated controls; for pest or weed control at 320 g/ha: Fallopia convolvulus, 504 h, read-out: Pre-emergence effect at 320 g/ha against POLCO in %
Method in brief: as §2

[6] = system: AMARE; experiment: Post-emergence herbicidal effect, greenhouse pot test; format: in vivo, Amaranthus retroflexus; conditions: Amaranthus retroflexus, 504 h, visual rating about 3 weeks after treatment, read-out: Post-emergence effect against AMARE
Method in brief: as §1

[7] = system: SETVI; experiment: Pre-emergence herbicidal effect, greenhouse pot test; format: in vivo, Setaria viridis; conditions: scored visually after about 3 weeks vs untreated controls; for pest or weed control at 320 g/ha: Setaria viridis, 504 h, read-out: Pre-emergence effect at 320 g/ha against SETVI in %
Method in brief: as §2

[8] = system: LOLRI; experiment: as above; format: in vivo, Lolium rigidum; conditions: scored visually after about 3 weeks vs untreated controls
Method in brief: as §2

[9] = system: ZEAMX; experiment: Pre-emergence herbicidal effect and crop plant compatibility, greenhouse pot test; format: in vivo, Zea mays; conditions: 80 g/ha, scored visually after about 3 weeks vs untreated controls
Method in brief: as §2

[10] = system: AVEFA; experiment: Post-emergence herbicidal effect, greenhouse pot test; format: in vivo, Avena fatua; conditions: Avena fatua, 504 h, visual rating about 3 weeks after treatment, read-out: Post-emergence effect against AVEFA
Method in brief: as §1

[11] = system: SETVI; experiment: as above; format: in vivo, Setaria viridis; conditions: Setaria viridis, 504 h, read-out: Post-emergence effect against SETVI in %
Method in brief: as §1

[12] = system: VIOTR; experiment: Pre-emergence herbicidal effect, greenhouse pot test; format: in vivo, Viola tricolor; conditions: scored visually after about 3 weeks vs untreated controls
Source text: Seeds of monocotyledonous and dicotyledonous weed plants and crop plants are placed in plastic or organic planting pots and covered with soil. The compounds of the invention, formulated in the form of wettable powders (WP) or as emulsion concentrates (EC), are then applied to the surface of the covering soil as aqueous suspension or emulsion with addition of 0.5% additive at a water application rate equivalent to 600 l/ha. After the treatment, the pots are placed in a greenhouse and kept under good growth conditions for the trial plants. After about 3 weeks, the effect of the preparations is scored visually in comparison with untreated controls as percentages. For example, 100% activity=the plants have died, 0% activity=like control plants.
Tables 1a to 19c below show the effects/crop compatibilities of selected compounds of the general formula (I) on various harmful plants at an application rate corresponding to 20 to 320 g/ha, which were obtained by the trial procedure specified above.
• ALOMY: Alopecurus myosuroides SETVI: Setaria viridis • AVEFA: Avena fatua POLCO: Fallopia convolvulus • AMARE: Amaranthus retroflexus ECHCG: Echinochloa crus-galli • LOLRJ: Lolium rigidum STEME: Stellaria media • VERPE: Veronica persica MATIN: Tripleurospermum inodorum • DIGSA: Digitaria sanguinalis ABUTH: Abutylon threophrasti • TRZAS: Triticum aestivum VIOTR: Viola tricolor • BRSNW: Brassica napus ZEAMX: Zea mays • PHBPU: Ipomoea purpurea GLXMA: Glycine max • ORYSA: Oryza sativa HORMU: Hordeum murinum

[13] = system: PHBPU; experiment: Post-emergence herbicidal effect, greenhouse pot test; format: in vivo, Ipomoea purpurea; conditions: Ipomoea purpurea, 504 h, read-out: Post-emergence effect against PHBPU in %
Method in brief: as §1

[14] = system: LOLRI; experiment: as above; format: in vivo, Lolium rigidum; conditions: Lolium rigidum, 504 h, read-out: Post-emergence effect against LOLRI in %
Method in brief: as §1

[15] = system: VIOTR; experiment: as above; format: in vivo, Viola tricolor; conditions: Viola tricolor, 504 h, read-out: Post-emergence effect against VIOTR in %
Method in brief: as §1

[16] = system: AVEFA; experiment: Pre-emergence herbicidal effect, greenhouse pot test; format: in vivo, Avena fatua; conditions: 320 g/ha, scored visually after about 3 weeks vs untreated controls
Method in brief: as §2

[17] = system: ALOMY; experiment: as above; format: in vivo, Alopecurus myosuroides; conditions: scored visually after about 3 weeks vs untreated controls
Method in brief: as §2

[18] = system: AMARE; experiment: as above; format: in vivo, Amaranthus retroflexus; conditions: scored visually after about 3 weeks vs untreated controls; for pest or weed control at 320 g/ha: Amaranthus retroflexus, 504 h, read-out: Pre-emergence effect at 320 g/ha against AMARE in %
Method in brief: as §2

[19] = system: MATIN; experiment: as above; format: in vivo, Tripleurospermum inodorum; conditions: scored visually after about 3 weeks vs untreated controls; for pest or weed control at 320 g/ha: Tripleurospermum inodorum, 504 h, read-out: Pre-emergence effect at 320 g/ha against MATIN in %
Method in brief: as §2

[20] = system: ECHCG; experiment: Post-emergence herbicidal effect, greenhouse pot test; format: in vivo, Echinochloa crus-galli; conditions: Echinochloa crus-galli, 504 h, read-out: Post-emergence effect against ECHCG in %
Method in brief: as §1

SMILES | pest or weed control at 80 g/ha [1] [%] | pest or weed control at 320 g/ha [1] [%] | pest or weed control at 320 g/ha [2] [%] | pest or weed control at 320 g/ha [3] [%] | pest or weed control at 320 g/ha [4] [%] | pest or weed control at 320 g/ha [5] [%] | pest or weed control at 320 g/ha [6] [%] | pest or weed control at 320 g/ha [7] [%] | Pre-emergence effect at 320 g/ha against LOLRI in % [8] [%] | Pre-emergence effect at 80 g/ha against ZEAMX in % [9] [%] | pest or weed control at 320 g/ha [10] [%] | pest or weed control at 80 g/ha [11] [%] | pest or weed control at 320 g/ha [11] [%] | pest or weed control at 320 g/ha [13] [%] | pest or weed control at 320 g/ha [14] [%] | pest or weed control at 320 g/ha [15] [%] | Pre-emergence effect at 320 g/ha against ALOMY in % [17] [%] | pest or weed control at 320 g/ha [18] [%] | pest or weed control at 320 g/ha [19] [%] | pest or weed control at 320 g/ha [20] [%] | further results
COC(=O)C(OC)Oc1nn(-c2ncccc2F)c(-c2ccc(F)nc2)c1Br (centres unmarked) [Example I-05] | 90 | 90 | 90 | 80 | 80 | 90 | 80 | 100 | 100 | 20 | 80 | 80 | 80 | 90 | 90 | 80 | 90 | 90 | 90 | 80 | pest or weed control at 80 g/ha [10]: 80%; Pre-emergence effect at 320 g/ha against VIOTR in % [12]: 100%; pest or weed control at 80 g/ha [14]: 80%; Pre-emergence effect at 320 g/ha against AVEFA in % [16]: 90%
CCOC(=O)C(OCC)Oc1nn(-c2ccccc2F)c(-c2ccc(F)nc2)c1Br (racemic) [Example I-01, Ethyl (2RS)-{[4-bromo-1-(2-fluorophenyl)-5-(6-fluoropyridin-3-yl)-1H-pyrazol-3-yl]oxy}(ethoxy)acetate] | 90 | 100 | 100 | 90 | 90 | 90 | 90 | 100 | 100 | 0 | 90 | 90 | 90 | 90 | 90 | 90 | 90 | 100 | 90 | 90 | pest or weed control at 80 g/ha [3]: 80%; pest or weed control at 80 g/ha [4]: 80%; Pre-emergence effect at 80 g/ha against POLCO in % [5]: 80%; pest or weed control at 80 g/ha ([6]; 80 g/ha): 80%; Pre-emergence effect at 80 g/ha against LOLRI in % ([8]; 80 g/ha): 90%; pest or weed control at 80 g/ha [13]: 90%; pest or weed control at 80 g/ha [15]: 80%; Pre-emergence effect at 80 g/ha against AMARE in % [18]: 80%; Pre-emergence effect at 80 g/ha against MATIN in % ([19]; 80 g/ha): 90%; pest or weed control at 80 g/ha [20]: 90%
COC(=O)C(OC)Oc1nn(-c2ccccc2F)c(-c2ccc(F)nc2)c1Br (racemic) [Example I-04, Methyl (2RS)-{[4-bromo-1-(2-fluorophenyl)-5-(6-fluoropyridin-3-yl)-1H-pyrazol-3-yl]oxy}(methoxy)acetate] | 90 | 90 | 100 | 90 | 80 | 90 | 90 | 100 | 100 | 0 | 90 | 80 | 80 | 80 | 80 | 80 | 90 | 100 | 90 | 80 | Pre-emergence effect at 80 g/ha against ECHCG in % ([2]; 80 g/ha): 80%; pest or weed control at 80 g/ha [3]: 90%; pest or weed control at 80 g/ha [4]: 80%; Pre-emergence effect at 80 g/ha against POLCO in % [5]: 80%; Pre-emergence effect at 80 g/ha against SETVI in % ([7]; 80 g/ha): 80%; pest or weed control at 80 g/ha [10]: 80%; Pre-emergence effect at 80 g/ha against VIOTR in % ([12]; 80 g/ha): 80%; Pre-emergence effect at 320 g/ha against VIOTR in % [12]: 100%; pest or weed control at 80 g/ha [13]: 80%; pest or weed control at 80 g/ha [14]: 80%; pest or weed control at 80 g/ha [15]: 80%; Pre-emergence effect at 320 g/ha against AVEFA in % [16]: 80%; Pre-emergence effect at 80 g/ha against ALOMY in % ([17]; 80 g/ha): 80%; Pre-emergence effect at 80 g/ha against AMARE in % [18]: 80%; pest or weed control at 80 g/ha [20]: 80%
